± gives the expanded uncertainty stated by the source.
Tests used:
[1] = for molar entropy: 101.33 kPa, Vacuum adiabatic calorimetry
[2] = Molar enthalpy of transition or fusion; conditions: Crystal; Adiabatic calorimetry

CC(C)(C)Cc1ccccc1 [(2,2-dimethylpropyl)benzene]
[1]
Conditions | Triple point temperature [K] | molar entropy [J/K/mol]
5 K, Crystal | – | 0.1197 ± 0.017
10 K, Crystal | – | 0.956 ± 0.027
15 K, Crystal | – | 3.026 ± 0.047
20 K, Crystal | – | 6.298 ± 0.07
25 K, Crystal | – | 10.58 ± 0.09
30 K, Crystal | – | 15.48 ± 0.11
35 K, Crystal | – | 20.64 ± 0.12
40 K, Crystal | – | 25.96 ± 0.14
45 K, Crystal | – | 31.32 ± 0.16
50 K, Crystal | – | 36.64 ± 0.17
60 K, Crystal | – | 46.98 ± 0.2
70 K, Crystal | – | 57.07 ± 0.23
80 K, Crystal | – | 66.82 ± 0.26
90 K, Crystal | – | 76.28 ± 0.41
100 K, Crystal | – | 85.56 ± 0.43
110 K, Crystal | – | 94.62 ± 0.44
120 K, Crystal | – | 103.5 ± 0.5
130 K, Crystal | – | 112.2 ± 0.5
140 K, Crystal | – | 120.9 ± 0.5
150 K, Crystal | – | 129.4 ± 0.5
160 K, Crystal | – | 137.8 ± 0.5
170 K, Crystal | – | 146.1 ± 0.5
180 K, Crystal | – | 154.2 ± 0.5
190 K, Crystal | – | 162.5 ± 0.5
200 K, Crystal | – | 170.5 ± 0.6
210 K, Crystal | – | 178.6 ± 0.6
220 K, Crystal | – | 186.7 ± 0.6
230 K, Crystal | – | 194.6 ± 0.6
240 K, Crystal | – | 202.5 ± 0.6
250 K, Crystal | – | 210.4 ± 0.6
255.43 K, Crystal | – | 214.7 ± 0.6
255.43 K, Liquid | – | 274.9 ± 0.7
260 K, Liquid | – | 279.4 ± 0.7
270 K, Liquid | – | 288.9 ± 0.7
280 K, Liquid | – | 298.4 ± 0.7
290 K, Liquid | – | 307.7 ± 0.8
298.15 K, Liquid | – | 315.2 ± 0.8
300 K, Liquid | – | 316.9 ± 0.8
310 K, Liquid | – | 325.8 ± 0.8
320 K, Liquid | – | 334.7 ± 0.8
330 K, Liquid | – | 343.4 ± 0.8
340 K, Liquid | – | 351.9 ± 0.8
350 K, Liquid | – | 360.4 ± 0.8
Crystal, Adiabatic calorimetry | 255.43 ± 0.05 | –

Conditions | Molar enthalpy of transition or fusion [kcal/mol]
[2] | 3.676 ± 0.0239

Reference: the NIST ThermoML archive (doi:10.1016/j.jct.2011.12.010)
